Reference: ChEMBL document CHEMBL1201862, “PubChem BioAssay data set” (2004)
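48-hour exposure; five concentrations; linearly interpolated endpoints. Abbreviation: GI50, concentration required for 50% inhibition of growth.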 The source made the active and inactive calls. No stated cut-off is given here; in the data, active = GI50 up to about 1.1 µM and inactive = higher.

Legend:
Test in all cases: DTP human tumour cell line panel, 48 h
OVCAR-8 = tested on: OVCAR-8
HOP-62 = tested on: HOP-62
A498 = tested on: A498
Hs-578T = tested on: Hs-578T
SNB-19 = tested on: SNB-19
LOX IMVI = tested on: LOX IMVI
NCI-H23 = tested on: NCI-H23
KM12 = tested on: KM12
NCI-H226 = tested on: NCI-H226
NCI-H522 = tested on: NCI-H522
CAKI-1 = tested on: CAKI-1
TK-10 = tested on: TK-10
SN12C = tested on: SN12C
RPMI-8226 = tested on: RPMI-8226
SF-268 = tested on: SF-268
HT-29 = tested on: HT-29
OVCAR-4 = tested on: OVCAR-4
HOP-92 = tested on: HOP-92
MOLT-4 = tested on: MOLT-4

Measured: GI50

Nc1ccc(S(=O)(=O)C23CC4CC(CC(C4)C2)C3)cc1
inactive: OVCAR-8 > 100 µM | HOP-62 > 100 µM | A498 23.1 µM | Hs-578T > 100 µM | SNB-19 > 100 µM | LOX IMVI 70.8 µM | NCI-H23 > 100 µM | KM12 > 100 µM | NCI-H226 > 100 µM | NCI-H522 > 100 µM | CAKI-1 > 100 µM | TK-10 > 100 µM | SN12C > 100 µM | RPMI-8226 55.3 µM | SF-268 > 100 µM | HT-29 > 100 µM

CC1(C)[C@@H](Cn2cnc3c(O)nc(N)nc32)CC[C@@]1(C)CO
inactive: HOP-62 > 100 µM | OVCAR-4 > 100 µM | A498 > 100 µM | Hs-578T > 100 µM | SNB-19 > 100 µM | LOX IMVI > 100 µM | KM12 > 100 µM | HOP-92 > 100 µM | MOLT-4 1.34 µM | NCI-H226 > 100 µM | CAKI-1 > 100 µM | TK-10 > 100 µM | SN12C > 100 µM | RPMI-8226 > 100 µM | SF-268 > 100 µM

O=NN1CCCS1(=O)=O
inactive: OVCAR-8 > 100 µM | HOP-62 > 100 µM | OVCAR-4 > 100 µM | A498 > 100 µM | Hs-578T > 100 µM | SNB-19 > 100 µM | LOX IMVI > 100 µM | NCI-H23 > 100 µM | KM12 > 100 µM | MOLT-4 > 100 µM | NCI-H226 > 100 µM | CAKI-1 > 100 µM | TK-10 > 100 µM | SN12C > 100 µM | RPMI-8226 > 100 µM | SF-268 > 100 µM | HT-29 > 100 µM

CC(C)CNC(=O)CCc1cccc2c1oc1c(CCN)cccc12
inactive: OVCAR-8 18.1 µM | HOP-62 18.5 µM | OVCAR-4 18 µM | A498 15 µM | SNB-19 4.35 µM | LOX IMVI 12.5 µM | NCI-H23 12.5 µM | KM12 11.9 µM | HOP-92 5.7 µM | MOLT-4 11.8 µM | NCI-H226 16.9 µM | NCI-H522 13.2 µM | CAKI-1 12.9 µM | SN12C 17.4 µM | SF-268 15 µM | HT-29 9.31 µM

O=C(CNC(=O)c1ccccc1)Oc1c(Cl)c(Cl)c(Cl)c(Cl)c1Cl
inactive: OVCAR-8 22.1 µM | HOP-62 38.3 µM | OVCAR-4 45.5 µM | Hs-578T 24.9 µM | SNB-19 44.9 µM | LOX IMVI 35 µM | NCI-H23 > 100 µM | KM12 22.4 µM | MOLT-4 29 µM | NCI-H226 29 µM | NCI-H522 29.6 µM | CAKI-1 25.8 µM | TK-10 40.4 µM | SN12C 32.1 µM | RPMI-8226 38.7 µM | SF-268 40.6 µM | HT-29 30.5 µM

O=C(O)Cc1cccc2c1OC(c1ccccc1)C(Cl)(C(=O)c1ccccc1)C2=O (stereo not drawn)
inactive: OVCAR-8 22.2 µM | HOP-62 20.3 µM | Hs-578T 35 µM | SNB-19 40.1 µM | LOX IMVI 14.4 µM | NCI-H23 16.1 µM | KM12 18.5 µM | MOLT-4 22.4 µM | NCI-H226 30.1 µM | NCI-H522 14.2 µM | CAKI-1 17.8 µM | TK-10 21.8 µM | SN12C 10.5 µM | RPMI-8226 17.4 µM | SF-268 27.9 µM | HT-29 16.4 µM

O=C1/C(=C/c2ccc(Cl)cc2)Oc2ccccc21
inactive: OVCAR-8 29.9 µM | HOP-62 22.3 µM | OVCAR-4 46.5 µM | Hs-578T 18.7 µM | SNB-19 37 µM | NCI-H23 23.4 µM | KM12 32.4 µM | MOLT-4 55.6 µM | NCI-H226 38.1 µM | NCI-H522 11.7 µM | CAKI-1 2.76 µM | TK-10 22.7 µM | SN12C 96.8 µM | RPMI-8226 58.2 µM | SF-268 51.6 µM | HT-29 > 100 µM

C=C1C(=O)O[C@H]2C[C@@]3(COC(C)=O)C=COC=C(COC(=O)C(C)C)C3CC12 (stereo partly drawn)
inactive: OVCAR-8 53.3 µM | HOP-62 > 100 µM | Hs-578T > 100 µM | SNB-19 > 100 µM | LOX IMVI 45.2 µM | NCI-H23 > 100 µM | KM12 > 100 µM | MOLT-4 28.4 µM | NCI-H226 > 100 µM | NCI-H522 60 µM | CAKI-1 65.2 µM | TK-10 > 100 µM | SN12C 37.7 µM | RPMI-8226 21.5 µM | SF-268 > 10 µM | HT-29 > 100 µM

Cc1cc(S(=O)(=O)Nc2nc(N)nc(N(C)C)n2)c(SCC(=O)O)cc1Cl
inactive: OVCAR-8 > 10 µM | HOP-62 > 10 µM | OVCAR-4 > 10 µM | A498 > 10 µM | SNB-19 > 10 µM | LOX IMVI > 10 µM | NCI-H23 > 10 µM | KM12 > 10 µM | HOP-92 > 10 µM | MOLT-4 > 10 µM | NCI-H226 > 10 µM | NCI-H522 > 10 µM | CAKI-1 > 10 µM | TK-10 > 10 µM | SN12C > 10 µM | RPMI-8226 > 10 µM | SF-268 > 10 µM | HT-29 > 10 µM

CN1CCN(CCCN2c3ccccc3Sc3ccc(C(F)(F)F)cc32)CC1
inactive: OVCAR-8 13.1 µM | HOP-62 11.3 µM | OVCAR-4 8.81 µM | A498 12.6 µM | Hs-578T 3.4 µM | SNB-19 11.4 µM | LOX IMVI 2.73 µM | NCI-H23 11.1 µM | KM12 2.94 µM | MOLT-4 2.92 µM | NCI-H226 13.2 µM | CAKI-1 9.64 µM | SN12C 7.57 µM | SF-268 7.78 µM | HT-29 2.35 µM

COc1ccc(/C=C2/SC(c3ccc(Cl)cc3)N(NC(=O)CCCCCCCCC(=O)NN3C(=O)/C(=C\c4ccc(OC)c(OC)c4)SC3c3ccc(Cl)cc3)C2=O)cc1OC (stereo not drawn)
inactive: OVCAR-8 52.8 µM | HOP-62 25.8 µM | OVCAR-4 > 100 µM | A498 24.4 µM | SNB-19 50.2 µM | NCI-H23 20.4 µM | KM12 55.3 µM | HOP-92 18.8 µM | MOLT-4 47.5 µM | NCI-H226 > 100 µM | CAKI-1 47.1 µM | TK-10 75.2 µM | SN12C > 100 µM | RPMI-8226 > 100 µM | SF-268 50 µM | HT-29 > 100 µM

C=C(C)COC1CCCCO1 (stereo not drawn)
inactive: OVCAR-8 > 100 µM | HOP-62 > 100 µM | A498 > 100 µM | Hs-578T > 100 µM | SNB-19 > 100 µM | LOX IMVI > 100 µM | NCI-H23 > 100 µM | KM12 > 100 µM | MOLT-4 > 100 µM | NCI-H226 > 100 µM | NCI-H522 > 100 µM | CAKI-1 > 100 µM | TK-10 > 100 µM | SN12C > 100 µM | RPMI-8226 > 100 µM | SF-268 > 100 µM | HT-29 > 100 µM

O=C(CC(=O)c1ccccc1)CC(O)(c1ccccc1)c1ccccc1
inactive: OVCAR-8 5.26 µM | HOP-62 3.34 µM | OVCAR-4 3.13 µM | A498 12.1 µM | SNB-19 3.92 µM | NCI-H23 3.37 µM | KM12 7.76 µM | HOP-92 5.21 µM | MOLT-4 1.88 µM | NCI-H226 3.87 µM | NCI-H522 3.12 µM | CAKI-1 2.9 µM | TK-10 9.82 µM | SN12C 4.99 µM | RPMI-8226 4.05 µM | SF-268 6.9 µM | HT-29 10.4 µM

CC(=O)OC(OC(C)=O)c1ccc2ccc3cccc4ccc1c2c34
inactive: OVCAR-8 12.8 µM | A498 1.48 µM | Hs-578T 16.1 µM | SNB-19 19.5 µM | LOX IMVI 16 µM | NCI-H23 18.7 µM | KM12 9.77 µM | HOP-92 17.9 µM | MOLT-4 39.4 µM | NCI-H226 3.08 µM | CAKI-1 9.04 µM | TK-10 9.25 µM | SN12C 26.7 µM | RPMI-8226 16.3 µM | SF-268 28 µM | HT-29 18 µM

CC(=O)OC(Cc1c(O)c2c(C)cccc2oc1=O)C(C)(C)O (stereo not drawn)
inactive: OVCAR-8 > 100 µM | HOP-62 > 100 µM | A498 > 100 µM | Hs-578T > 100 µM | SNB-19 > 100 µM | LOX IMVI > 100 µM | NCI-H23 > 100 µM | KM12 > 100 µM | MOLT-4 46.8 µM | NCI-H226 > 100 µM | NCI-H522 > 100 µM | CAKI-1 > 100 µM | TK-10 > 100 µM | SN12C > 100 µM | RPMI-8226 > 100 µM | SF-268 91.4 µM | HT-29 > 100 µM

COc1ccccc1Nc1nc(NNC(=O)Cc2ccccc2)nc(NNC(=O)c2ccncc2)n1
inactive: OVCAR-8 > 10 µM | HOP-62 > 10 µM | OVCAR-4 > 10 µM | Hs-578T 9.04 µM | LOX IMVI > 10 µM | NCI-H23 > 10 µM | KM12 > 10 µM | HOP-92 > 10 µM | MOLT-4 > 10 µM | CAKI-1 > 10 µM | TK-10 > 10 µM | SN12C > 10 µM | RPMI-8226 > 10 µM | SF-268 > 10 µM | HT-29 > 10 µM

O=C(N/N=C\c1ccc2ccccc2c1)Nc1ccc([N+](=O)[O-])cc1
inactive: OVCAR-8 23 µM | HOP-62 27 µM | OVCAR-4 22.1 µM | Hs-578T 32.9 µM | SNB-19 24.3 µM | LOX IMVI 30.5 µM | NCI-H23 22.2 µM | KM12 33.4 µM | HOP-92 17.5 µM | MOLT-4 20 µM | NCI-H226 29.4 µM | NCI-H522 16.3 µM | CAKI-1 45 µM | TK-10 18.9 µM | SN12C 24.2 µM | RPMI-8226 15.1 µM | SF-268 27 µM | HT-29 21.3 µM
